How the values were obtained:
[1] = target: T1, Gamma-aminobutyric acid receptor subunit alpha-6/beta-3/gamma-2 (Rattus norvegicus, UniProt P18508+P30191+P63079); test: (§1) Positive allosteric modulation of rat recombinant GABAA alpha6beta3alpha6-gamma2beta3 receptor expressed in Xenopus laevis oocytes assessed as increase in GABA-induced current amplitude at -80 mV holding potential under more potent phase in presence of GABA EC1 to 1.5 by two-electrode voltage-clamp assay; type: cell-based, Oocyte
[2] = target: T1, Gamma-aminobutyric acid receptor subunit alpha-6/beta-3/gamma-2; test: as §1, with “less” for “more”; type: cell-based, Oocyte
[3] = target: T2, Gamma-aminobutyric acid receptor subunit alpha-1/alpha-6/beta-3/gamma-2 (Rattus norvegicus) (UniProt P18508+P30191+P62813+P63079); test: Positive allosteric modulation of rat recombinant GABAA gamma2beta3alpha1-beta3alpha6 receptor expressed in Xenopus laevis oocytes assessed as maximal current at -80 mV holding potential under more potent phase in presence of GABA EC1 to 1.5 by two-electrode voltage-clamp assay relative to control; type: cell-based; settings: Oocyte
[4] = target: T2, Gamma-aminobutyric acid receptor subunit alpha-1/alpha-6/beta-3/gamma-2 (Rattus norvegicus); test: Positive allosteric modulation of rat recombinant GABAA gamma2beta3alpha1-beta3alpha6 receptor expressed in Xenopus laevis oocytes assessed as maximal current at -80 mV holding potential under less potent phase in presence of GABA EC1 to 1.5 by two-electrode voltage-clamp assay relative to control; type: cell-based; settings: Oocyte, filed as positive allosteric modulator
[5] = target: T3, Gamma-aminobutyric acid receptor subunit alpha-1/beta-3/gamma-2 (Rattus norvegicus) (UniProt P18508+P62813+P63079); test: Positive allosteric modulation of rat recombinant GABAA alpha1beta3alpha1-gamma2beta3 receptor expressed in Xenopus laevis oocytes assessed as maximal current at -80 mV holding potential under less potent phase in presence of GABA EC1 to 1.5 by two-electrode voltage-clamp assay relative to control; type: cell-based; settings: Oocyte, filed as positive allosteric modulator
[6] = target: Gamma-aminobutyric acid receptor subunit alpha-1/beta-3/gamma-2 (Rattus norvegicus, UniProt P18508+P62813+P63079); test: (§2) Positive allosteric modulation of rat recombinant GABAA alpha1beta3gamma2 receptor expressed in Xenopus laevis oocytes assessed as increase in GABA-induced current amplitude at -80 mV holding potential under less potent phase in presence of GABA EC1 to 1.5 by two-electrode voltage-clamp assay; type: cell-based, Oocyte
[7] = target: T3, Gamma-aminobutyric acid receptor subunit alpha-1/beta-3/gamma-2 (Rattus norvegicus); test: Positive allosteric modulation of rat recombinant GABAA alpha1beta3gamma2 receptor expressed in Xenopus laevis oocytes assessed as maximal current at -80 mV holding potential under less potent phase in presence of GABA EC1 to 1.5 by two-electrode voltage-clamp assay relative to control; type: cell-based; settings: Oocyte, filed as positive allosteric modulator
[8] = target: Gamma-aminobutyric acid receptor subunit alpha-1/alpha-6/beta-3/gamma-2 (Rattus norvegicus, UniProt P18508+P30191+P62813+P63079); test: as §2, with “alpha6beta3alpha1-gamma2beta3” for “alpha1beta3gamma2”; type: cell-based, Oocyte
[9] = target: T4, Gamma-aminobutyric acid receptor subunit alpha-6/beta-3/gamma-2 (Rattus norvegicus) (UniProt P18508+P30191+P63079); test: Positive allosteric modulation of rat recombinant GABAA alpha6beta3alpha6-gamma2beta3 receptor expressed in Xenopus laevis oocytes assessed as maximal efficacy at -80 mV holding potential at 1 nM in presence of GABA EC1 to 1.5 by two-electrode voltage-clamp assay; type: cell-based; settings: Oocyte
[10] = target: T4, Gamma-aminobutyric acid receptor subunit alpha-6/beta-3/gamma-2 (Rattus norvegicus); test: Positive allosteric modulation of rat recombinant GABAA alpha6beta3alpha6-gamma2beta3 receptor expressed in Xenopus laevis oocytes assessed as maximal efficacy at -80 mV holding potential at 30 nM in presence of GABA EC1 to 1.5 by two-electrode voltage-clamp assay; type: cell-based; settings: Oocyte, filed as positive allosteric modulator
[11] = target: T4, Gamma-aminobutyric acid receptor subunit alpha-6/beta-3/gamma-2 (Rattus norvegicus); test: Positive allosteric modulation of rat recombinant GABAA alpha6beta3alpha6-gamma2beta3 receptor expressed in Xenopus laevis oocytes assessed as maximal efficacy at -80 mV holding potential at 100 nM in presence of GABA EC1 to 1.5 by two-electrode voltage-clamp assay; type: cell-based; settings: Oocyte, filed as positive allosteric modulator
[12] = target: T4, Gamma-aminobutyric acid receptor subunit alpha-6/beta-3/gamma-2 (Rattus norvegicus); test: Positive allosteric modulation of rat recombinant GABAA alpha6beta3alpha6-gamma2beta3 receptor expressed in Xenopus laevis oocytes assessed as maximal efficacy at -80 mV holding potential at 300 nM in presence of GABA EC1 to 1.5 by two-electrode voltage-clamp assay; type: cell-based; settings: Oocyte, filed as positive allosteric modulator
[13] = target: T3, Gamma-aminobutyric acid receptor subunit alpha-1/beta-3/gamma-2 (Rattus norvegicus); test: Positive allosteric modulation of rat recombinant GABAA alpha1beta3gamma2 receptor expressed in Xenopus laevis oocytes assessed as maximal efficacy at -80 mV holding potential at 10 nM in presence of GABA EC1 to 1.5 by two-electrode voltage-clamp assay; type: cell-based; settings: Oocyte
[14] = target: T3, Gamma-aminobutyric acid receptor subunit alpha-1/beta-3/gamma-2 (Rattus norvegicus); test: Positive allosteric modulation of rat recombinant GABAA alpha1beta3alpha1-gamma2beta3 receptor expressed in Xenopus laevis oocytes assessed as maximal efficacy at -80 mV holding potential at 30 uM in presence of GABA EC1 to 1.5 by two-electrode voltage-clamp assay; type: cell-based; settings: Oocyte, filed as positive allosteric modulator
[15] = target: T3, Gamma-aminobutyric acid receptor subunit alpha-1/beta-3/gamma-2 (Rattus norvegicus); test: Positive allosteric modulation of rat recombinant GABAA alpha1beta3gamma2 receptor expressed in Xenopus laevis oocytes assessed as maximal efficacy at -80 mV holding potential at 100 nM in presence of GABA EC1 to 1.5 by two-electrode voltage-clamp assay; type: cell-based; settings: Oocyte
[16] = target: T3, Gamma-aminobutyric acid receptor subunit alpha-1/beta-3/gamma-2 (Rattus norvegicus); test: Positive allosteric modulation of rat recombinant GABAA alpha1beta3gamma2 receptor expressed in Xenopus laevis oocytes assessed as maximal efficacy at -80 mV holding potential at 300 nM in presence of GABA EC1 to 1.5 by two-electrode voltage-clamp assay; type: cell-based; settings: Oocyte
[17] = target: T3, Gamma-aminobutyric acid receptor subunit alpha-1/beta-3/gamma-2 (Rattus norvegicus); test: Positive allosteric modulation of rat recombinant GABAA alpha1beta3gamma2 receptor expressed in Xenopus laevis oocytes assessed as maximal efficacy at -80 mV holding potential at 10 uM in presence of GABA EC1 to 1.5 by two-electrode voltage-clamp assay; type: cell-based; settings: Oocyte, filed as positive allosteric modulator
[18] = target: T2, Gamma-aminobutyric acid receptor subunit alpha-1/alpha-6/beta-3/gamma-2 (Rattus norvegicus); test: Positive allosteric modulation of rat recombinant GABAA gamma2beta3alpha1-beta3alpha6 receptor expressed in Xenopus laevis oocytes assessed as maximal efficacy at -80 mV holding potential at 3 nM in presence of GABA EC1 to 1.5 by two-electrode voltage-clamp assay; type: cell-based; settings: Oocyte
[19] = target: T2, Gamma-aminobutyric acid receptor subunit alpha-1/alpha-6/beta-3/gamma-2 (Rattus norvegicus); test: Positive allosteric modulation of rat recombinant GABAA gamma2beta3alpha1-beta3alpha6 receptor expressed in Xenopus laevis oocytes assessed as maximal efficacy at -80 mV holding potential at 3 uM in presence of GABA EC1 to 1.5 by two-electrode voltage-clamp assay; type: cell-based; settings: Oocyte, filed as positive allosteric modulator
[20] = target: T4, Gamma-aminobutyric acid receptor subunit alpha-6/beta-3/gamma-2 (Rattus norvegicus); test: Positive allosteric modulation of rat recombinant GABAA alpha6beta3gamma2 receptor expressed in Xenopus laevis oocytes assessed as maximal efficacy at -80 mV holding potential at 1 nM in presence of GABA EC1 to 1.5 by two-electrode voltage-clamp assay; type: cell-based; settings: Oocyte
[21] = target: T4, Gamma-aminobutyric acid receptor subunit alpha-6/beta-3/gamma-2 (Rattus norvegicus); test: Positive allosteric modulation of rat recombinant GABAA alpha6beta3gamma2 receptor expressed in Xenopus laevis oocytes assessed as maximal efficacy at -80 mV holding potential at 10 nM in presence of GABA EC1 to 1.5 by two-electrode voltage-clamp assay; type: cell-based; settings: Oocyte
[22] = target: T2, Gamma-aminobutyric acid receptor subunit alpha-1/alpha-6/beta-3/gamma-2 (Rattus norvegicus); test: Positive allosteric modulation of rat recombinant GABAA alpha6beta3alpha1-gamma2beta3 receptor expressed in Xenopus laevis oocytes assessed as maximal efficacy at -80 mV holding potential at 30 nM in presence of GABA EC1 to 1.5 by two-electrode voltage-clamp assay; type: cell-based; settings: Oocyte
[23] = target: T2, Gamma-aminobutyric acid receptor subunit alpha-1/alpha-6/beta-3/gamma-2 (Rattus norvegicus); test: Positive allosteric modulation of rat recombinant GABAA alpha6beta3alpha1-gamma2beta3 receptor expressed in Xenopus laevis oocytes assessed as maximal efficacy at -80 mV holding potential at 100 nM in presence of GABA EC1 to 1.5 by two-electrode voltage-clamp assay; type: cell-based; settings: Oocyte

T1 sequence (P18508 whole entry): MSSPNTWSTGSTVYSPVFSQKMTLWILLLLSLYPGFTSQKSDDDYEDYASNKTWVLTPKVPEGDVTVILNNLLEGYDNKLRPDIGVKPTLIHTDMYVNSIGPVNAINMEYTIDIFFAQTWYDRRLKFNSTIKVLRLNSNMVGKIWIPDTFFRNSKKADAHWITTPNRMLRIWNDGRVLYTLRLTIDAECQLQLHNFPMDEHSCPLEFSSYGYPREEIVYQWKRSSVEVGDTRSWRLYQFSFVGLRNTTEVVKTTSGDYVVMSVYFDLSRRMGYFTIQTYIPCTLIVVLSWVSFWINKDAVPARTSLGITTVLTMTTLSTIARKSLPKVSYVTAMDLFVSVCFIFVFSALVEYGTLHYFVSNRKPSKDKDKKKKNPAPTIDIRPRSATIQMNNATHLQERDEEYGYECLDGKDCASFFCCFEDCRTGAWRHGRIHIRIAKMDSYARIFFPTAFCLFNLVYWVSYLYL
T1 sequence (P30191 whole entry): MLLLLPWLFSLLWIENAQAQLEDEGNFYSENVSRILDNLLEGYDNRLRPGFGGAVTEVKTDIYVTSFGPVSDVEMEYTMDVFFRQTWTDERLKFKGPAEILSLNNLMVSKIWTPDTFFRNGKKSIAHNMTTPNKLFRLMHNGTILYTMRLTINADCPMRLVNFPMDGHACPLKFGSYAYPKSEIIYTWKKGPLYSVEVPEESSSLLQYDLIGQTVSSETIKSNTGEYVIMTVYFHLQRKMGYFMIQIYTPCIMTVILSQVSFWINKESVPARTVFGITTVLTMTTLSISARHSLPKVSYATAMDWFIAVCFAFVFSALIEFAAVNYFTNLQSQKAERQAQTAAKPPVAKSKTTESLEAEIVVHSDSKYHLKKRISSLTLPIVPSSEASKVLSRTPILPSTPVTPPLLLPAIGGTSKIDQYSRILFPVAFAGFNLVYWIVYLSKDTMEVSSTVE
T1 sequence (P63079 whole entry): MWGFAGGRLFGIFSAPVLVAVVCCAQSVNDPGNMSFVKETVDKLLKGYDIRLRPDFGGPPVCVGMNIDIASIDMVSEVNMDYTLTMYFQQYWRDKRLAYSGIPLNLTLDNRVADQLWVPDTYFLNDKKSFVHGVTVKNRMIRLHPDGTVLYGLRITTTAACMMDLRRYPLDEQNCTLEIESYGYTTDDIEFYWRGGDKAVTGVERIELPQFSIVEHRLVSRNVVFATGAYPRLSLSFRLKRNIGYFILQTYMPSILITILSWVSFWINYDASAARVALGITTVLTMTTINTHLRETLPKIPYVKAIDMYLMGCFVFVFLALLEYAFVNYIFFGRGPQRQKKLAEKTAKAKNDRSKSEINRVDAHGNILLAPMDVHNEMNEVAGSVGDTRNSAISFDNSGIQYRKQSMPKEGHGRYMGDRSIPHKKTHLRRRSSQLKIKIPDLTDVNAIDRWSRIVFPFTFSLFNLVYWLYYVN
Chain of Gamma-aminobutyric acid receptor subunit alpha-1/beta-3/gamma-2 (P18508 whole entry): as the sequence (P18508 whole entry) above
Chain of Gamma-aminobutyric acid receptor subunit alpha-1/beta-3/gamma-2 (P62813 whole entry): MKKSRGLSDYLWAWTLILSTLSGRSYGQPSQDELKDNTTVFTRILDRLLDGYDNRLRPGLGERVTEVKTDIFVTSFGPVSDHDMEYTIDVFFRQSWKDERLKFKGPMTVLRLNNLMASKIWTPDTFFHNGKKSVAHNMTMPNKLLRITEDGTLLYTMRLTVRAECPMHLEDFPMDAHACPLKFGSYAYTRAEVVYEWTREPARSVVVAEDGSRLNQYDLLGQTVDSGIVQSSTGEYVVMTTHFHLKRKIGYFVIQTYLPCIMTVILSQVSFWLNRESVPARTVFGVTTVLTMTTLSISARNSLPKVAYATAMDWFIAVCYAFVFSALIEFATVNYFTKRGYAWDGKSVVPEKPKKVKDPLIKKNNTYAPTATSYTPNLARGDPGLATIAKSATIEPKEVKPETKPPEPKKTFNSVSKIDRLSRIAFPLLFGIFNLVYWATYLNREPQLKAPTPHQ
Chain of Gamma-aminobutyric acid receptor subunit alpha-1/beta-3/gamma-2 (P63079 whole entry): as the sequence (P63079 whole entry) above
Chain of Gamma-aminobutyric acid receptor subunit alpha-1/alpha-6/beta-3/gamma-2 (P18508 whole entry): as the sequence (P18508 whole entry) above
Chain of Gamma-aminobutyric acid receptor subunit alpha-1/alpha-6/beta-3/gamma-2 (P30191 whole entry): as the sequence (P30191 whole entry) above
Chain of Gamma-aminobutyric acid receptor subunit alpha-1/alpha-6/beta-3/gamma-2 (P62813 whole entry): as the sequence (P62813 whole entry) above
Chain of Gamma-aminobutyric acid receptor subunit alpha-1/alpha-6/beta-3/gamma-2 (P63079 whole entry): as the sequence (P63079 whole entry) above

EC50 [1]: 0.009 µM
EC50 [2]: 24 µM
%max [3]: 30%
%max [4]: 230%
%max [5]: 342%
EC50 [6]: 6 µM
%max [7]: 132%
EC50 [8]: 7 µM
Efficacy [9]: 5%
Efficacy [10]: 65%
Efficacy [11]: 101%
Efficacy [12]: 124%
Efficacy [13]: 1%
Efficacy [14]: 242%
Efficacy [15]: 5%
Efficacy [16]: 11%
Efficacy [17]: 84%
Efficacy [18]: 16%
Efficacy [19]: 89%
Efficacy [20]: 9%
Efficacy [21]: 24%
Efficacy [22]: 8%
Efficacy [23]: 18%
Structure (SMILES): COc1ccc(-n2nc3c4ccc(Br)cc4[nH]cc-3c2=O)cc1

Reference: ChEMBL document CHEMBL5252552, “Defined concatenated α6α1β3γ2 GABAA receptor constructs reveal dual action of pyrazoloquinolinone allosteric modulators” (Bioorg Med Chem, 2019)
